# Patent US9458172B2, “Pyridinyl and pyrimidinyl sulfoxide and sulfone derivatives” (priority 2012, dated 2016)
# Where two headings read alike, the source gives them in different places.
# Key:
# [1] = biological target: NAMPT (Homo sapiens (Human), UniProt P43490); assay: Biochemical Inhibition Assay (NAMPT enzymatic reaction, NMN quantified by mass spectrometry); conditions: 33 nM recombinant His-tagged NAMPT, 1 μM NAM, 30 min at rt
# Method: Assay 1: Biochemical Inhibition Assay
# NAMPT protein purification. Recombinant His-tagged NAMPT was produced in E. coli cells, purified over a Ni column, and further purified over a size-exclusion column by XTAL Biostructures.
# The NAMPT Enzymatic Reaction. The NAMPT enzymatic reactions were carried out in Buffer A (50 mM Hepes pH 7.5, 50 mM NaCl, 5 mM MgCl2, and 1 mM THP) in 96-well V-bottom plates. The compound titrations were performed in a separate dilution plate by serially diluting the compounds in DMSO to make a 100× stock. […] The compound and enzyme mixture was incubated for 15 min at rt, then 10 μL of 10× substrate and co-factors in Buffer A were added to the test well to make a final concentration of 1 μM NAM, […] 5-Phospho-D-ribose 1-diphosphate (PRPP), and 2.5 mM Adenosine 5′-triphosphate (ATP). The reaction was allowed to proceed for 30 min at rt, then was quenched with the addition of 11 μL of a solution of formic acid and L-Cystathionine to make a final concentration of 1% formic acid and 10 μM L-Cystathionine. Background and signal strength was determined by addition (or non-addition) of a serial dilution of NMN to a pre-quenched enzyme and cofactor mix.
# Quantification of NMN. A mass spectrometry-based assay was used to measure the NAMPT reaction product, β-nicotinamide mononucleotide (NMN), and the internal control (L-Cystathionine). NMN and L-Cystathionine were detected using the services of Biocius Lifesciences with the RapidFire system. In short, the NMN and L-Cystathionine were bound to a graphitic carbon cartridge in 0.1% formic acid, eluted in 30% acetonitrile buffer, and injected into a Sciex 4000 mass spectrometer. The components of the sample were ionized with electrospray ionization and the positive ions were detected. […] The fragments are quantified and the analyzed by the following method.
# Determination of IC50 Values. First, the NMN signal was normalized to the L-Cystathionine signal by dividing the NMN signal by the L-Cystathionine signal for each well. The signal from the background wells were averaged and subtracted from the test plates.
# [2] = test system: A2780 cells; assay: In-Vitro Cell Proliferation Assay (SRB); conditions: Homo sapiens, A2780, 72 h
# [3] = read-out: Cell Proliferation (IC50)
# [4] = read-out: Cell Proliferation (IC50), A2780 cells, 72 h, sulforhodamine B
# NAMPT, sequence (P43490 whole entry): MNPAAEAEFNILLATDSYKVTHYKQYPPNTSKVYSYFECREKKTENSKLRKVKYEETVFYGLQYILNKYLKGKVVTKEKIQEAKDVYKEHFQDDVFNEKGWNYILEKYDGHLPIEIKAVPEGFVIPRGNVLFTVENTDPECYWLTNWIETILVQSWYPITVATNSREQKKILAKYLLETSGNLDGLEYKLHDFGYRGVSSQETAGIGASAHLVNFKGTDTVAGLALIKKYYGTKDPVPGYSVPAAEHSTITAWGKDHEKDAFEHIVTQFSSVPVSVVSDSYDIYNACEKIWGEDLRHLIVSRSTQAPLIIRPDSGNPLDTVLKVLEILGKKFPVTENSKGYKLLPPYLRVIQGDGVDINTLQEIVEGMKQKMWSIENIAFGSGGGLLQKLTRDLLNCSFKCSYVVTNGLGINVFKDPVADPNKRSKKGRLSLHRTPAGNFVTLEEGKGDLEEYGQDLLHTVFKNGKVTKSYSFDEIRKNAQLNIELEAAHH
SMILES,IC50 [1] [nM],"IC50 [2, 3] [nM]","IC50 [2, 4] [nM]"
"O=C(NCc1ccc(S(=O)(=O)N2CCN(C3CCOCC3)CC2)cn1)c1cc2ccncc2o1 [Example 127, N-[[5-(4-tetrahydropyran-4-ylpiperazin-1-yl)sulfonyl-2-pyridyl]methyl]furo[2,3-c]pyridine-2-carboxamide]",49.2,31.3,
"O=C(NCc1ccc(S(=O)(=O)N2CCC(N3CCCC3)CC2)cn1)c1cc2ccncc2o1 [Example 91, Furo[2,3-c]pyridine-2-carboxylic acid [5-(4-pyrrolidin-1-yl-piperidine-1-sulfonyl)-pyridin-2-ylmethyl]-amide]",47.4,45.7,
"O=C(NCc1ccc(S(=O)(=O)c2cccc(C(F)(F)F)c2)cn1)c1cnc2[nH]ncc2c1 [Example 16, 1H-Pyrazolo[3,4-b]pyridine-5-carboxylic acid [5-(3-trifluoromethyl-benzenesulfonyl)-pyridin-2-ylmethyl]-amide]",39.4,16.3,
"O=C(NCc1ccc(S(=O)(=O)c2ccccc2)cn1)c1ccc2nccn2c1 [Example 184, N-[[5-(benzenesulfonyl)-2-pyridyl]methyl]imidazo[1,2-a]pyridine-6-carboxamide]",99.2,,2000
"CCCn1cc(S(=O)(=O)c2ccc(CNC(=O)c3ccc4nccn4c3)nc2)cn1 [Example 43, Imidazo[1,2-a]pyridine-6-carboxylic acid [5-(1-propyl-1H-pyrazole-4-sulfonyl)-pyridin-2-ylmethyl]-amide]",27.3,24.1,
"Cn1cc(S(=O)(=O)c2ccc(CNC(=O)c3cc4ccncc4s3)nc2)cn1 [Example 40, Thieno[2,3-c]pyridine-2-carboxylic acid [5-(1-methyl-1H-pyrazole-4-sulfonyl)-pyridin-2-ylmethyl]-amide]",134,2000,
"N#Cc1cccc(S(=O)(=O)c2ccc(CNC(=O)c3cnc4[nH]ncc4c3)nc2)c1 [Example 156, N-[[5-(3-cyanophenyl)sulfonyl-2-pyridyl]methyl]-1H-pyrazolo[3,4-b]pyridine-5-carboxamide]",452,940,
"Cn1ncc2c1CN(C(=O)NCc1ccc(S(=O)(=O)c3ccccc3)cn1)C2 [Example 179, N-[[5-(benzenesulfonyl)-2-pyridyl]methyl]-1-methyl-4,6-dihydropyrrolo[3,4-c]pyrazole-5-carboxamide]",1380,,2000
"O=C(NCc1ccc([S+]([O-])C2CCN(CC(F)(F)F)CC2)cn1)c1ccc2nccn2c1 (centres unmarked) [Example 173, N-[[5-[[1-(2,2,2-trifluoroethyl)-4-piperidyl]sulfinyl]-2-pyridyl]methyl]imidazo[1,2-a]pyridine-6-carboxamide]",202,63.1,
"O=C(NCc1ccc(S(=O)(=O)c2cncc(C(F)(F)F)c2)cn1)c1cc2ccncc2o1 [Example 163, N-[[5-[[5-(trifluoromethyl)-3-pyridyl]sulfonyl]-2-pyridyl]methyl]furo[2,3-c]pyridine-2-carboxamide]",49.5,25.3,
"O=C(NCc1ccc(S(=O)(=O)C2CCN(C3CCOCC3)CC2)cn1)N1Cc2ccncc2C1 [Example 119, N-[[5-[(1-tetrahydropyran-4 yl-4-piperidyl)sulfonyl]-2-pyridyl]methyl]-1,3-dihydropyrrolo[3,4-c]pyridine-2-carboxamide]",37.5,,14.5
"O=C(NCc1ccc(S(=O)(=O)c2cncc(Cl)c2)cn1)c1cc2ccncc2o1 [Example 169, N-[[5-[(5-chloro-3-pyridyl)sulfonyl]-2-pyridyl]methyl]furo[2,3-c]pyridine-2-carboxamide]",66.4,26.9,
"O=C(NCc1ccc(S(=O)(=O)C2CCOCC2)cn1)c1ccc2nccn2c1 [Example 60, Imidazo[1,2-a]pyridine-6-carboxylic acid [5-(tetrahydro-pyran-4-sulfonyl)-pyridin-2-ylmethyl]-amide]",693,1300,
"O=C(NCc1ccc(S(=O)(=O)C2CCNCC2)cn1)c1ccc2nccn2c1 [Example 27, Imidazo[1,2-a]pyridine-6-carboxylic acid [5-(piperidine-4-sulfonyl)-pyridin-2-ylmethyl]-amide]",572,930,
"O=C(NCc1ccc(S(=O)(=O)c2ccccc2)cn1)c1cc2ccncc2s1 [Example 186, N-[[5-(benzenesulfonyl)-2-pyridyl]methyl]thieno[2,3-c]pyridine-2-carboxamide]",125,,918
"O=C(NCc1ccc(S(=O)(=O)c2cncc(Cl)c2)cn1)c1cnc2[nH]ncc2c1 [Example 164, N-[[5-[(5-chloro-3-pyridyl)sulfonyl]-2-pyridyl]methyl]-1H-pyrazolo[3,4-b]pyridine-5-carboxamide]",143,49.4,
"COc1ccc(S(=O)(=O)c2ccc(CNC(=O)c3ccc4nccn4c3)nc2)cc1OC [Example 65, Imidazo[1,2-a]pyridine-6-carboxylic acid [5-(3,4-dimethoxy-benzenesulfonyl)-pyridin-2-ylmethyl]-amide]",30.7,7,

# Stronger by IC50 [1], values ahead:
IC50 [1] [nM],"IC50 [2, 3] [nM]","IC50 [2, 4] [nM]",SMILES
19.1,828,,"O=C(NCc1ncc(S(=O)(=O)c2ccccc2)cn1)c1cnc2nccn2c1 [Example 12, Imidazo[1,2-a]pyrimidine-6-carboxylic acid (5-benzenesulfonyl-pyrimidin-2-ylmethyl)-amide]"
21.8,19.1,,"O=C(NCc1ccc(S(=O)(=O)c2cccc(N3CCOCC3)c2)cn1)c1cc2ccncc2o1 [Example 123, N-[[5-(3-morpholinophenyl)sulfonyl-2-pyridyl]methyl]furo[2,3-c]pyridine-2-carboxamide]"
12.3,18.5,,"O=C(NCc1ncc(S(=O)(=O)c2cccc(C(F)(F)F)c2)cn1)c1cc2ccncc2o1 [Example 81, Furo[2,3-c]pyridine-2-carboxylic acid [5-(3-trifluoromethyl-benzenesulfonyl)-pyrimidin-2-ylmethyl]-amide]"
3.4,13.5,,"O=C(NCc1ccc(S(=O)(=O)c2cccc(OC(F)(F)F)c2)cn1)N1Cc2ccncc2C1 [Example 50, 1,3-Dihydro-pyrrolo[3,4-c]pyridine-2-carboxylic acid [5-(3-trifluoromethoxy-benzenesulfonyl)-pyridin-2-ylmethyl]-amide]"
16.2,275,,"O=C(NCc1ccc([S+]([O-])c2cc(F)cc(F)c2)cn1)c1cnc2nccn2c1 (racemic) [Example 24, Imidazo[1,2-a]pyrimidine-6-carboxylic acid [5-(3,5-difluoro-benzenesulfinyl)-pyridin-2-ylmethyl]-amide (racemic)]"
9.1,7.3,,"CN(C)c1ccc(S(=O)(=O)c2ccc(CNC(=O)c3ccc4nccn4c3)nc2)cn1 [Example 83, Imidazo[1,2-a]pyridine-6-carboxylic acid [5-(6-dimethylamino-pyridine-3-sulfonyl)-pyridin-2-ylmethyl]-amide]"
3,,101,"O=C(NCc1ccc(S(=O)(=O)C2CCN(CC(F)(F)F)CC2)cn1)c1cnc2nccn2c1 [Example 111, N-[[5-[[1-(2,2,2-trifluoroethyl)-4-piperidyl]sulfonyl]-2-pyridyl]methyl]imidazo[1,2-a]pyrimidine-6-carboxamide]"
7.1,9.2,,"O=C(NCc1ccc(S(=O)(=O)c2cc(F)cc(F)c2)cn1)c1ccc2nccn2c1 [Example 4, Imidazo[1,2-a]pyridine-6-carboxylic acid [5-(3,5-difluoro-benzenesulfonyl)-pyridin-2-ylmethyl]-amide]"
1.7,0.5,,"O=C(NCc1ccc(S(=O)(=O)c2ccc(N3CCOCC3)nc2)cn1)c1cc2ccncc2s1 [Example 54, Thieno[2,3-c]pyridine-2-carboxylic acid [5-(6-morpholin-4-yl-pyridine-3-sulfonyl)-pyridin-2-ylmethyl]-amide]"
8.6,2,,"O=C(NCc1ccc(S(=O)(=O)c2ccc(N3CCOCC3)nc2)cn1)c1ccc2nccn2c1 [Example 35, Imidazo[1,2-a]pyridine-6-carboxylic acid [5-(6-morpholin-4-yl-pyridine-3-sulfonyl)-pyridin-2-ylmethyl]-amide]"
4.7,11.7,,"O=C(NCc1ccc(S(=O)(=O)c2cccc(C(F)(F)F)c2)cn1)c1cnc2nccn2c1 [Example 18, Imidazo[1,2-a]pyrimidine-6-carboxylic acid (5-(3-trifluoromethyl-benzenesulfonyl)-pyridin-2-ylmethyl]-amide]"
